Experiments:
Type in all cases: functional
Finegoldia magna = assay: Antimicrobial activity against Finegoldia magna by Wadsworth agar dilution method
Bilophila wadsworthia = assay: Antimicrobial activity against Bilophila wadsworthia by Wadsworth agar dilution method in presence of 1% pyruvic acid
Lactobacillus sp. = assay: Antimicrobial activity against Lactobacillus sp. by Wadsworth agar dilution method
[1] = tested on: Fusobacterium necrophorum; assay: Antimicrobial activity against Fusobacterium necrophorum by Wadsworth agar dilution method
Clostridium cocleatum = assay: Antimicrobial activity against Clostridium cocleatum by Wadsworth agar dilution method; conditions: Thomasclavelia cocleata
Peptoniphilus harei = assay: Antimicrobial activity against Peptoniphilus harei by Wadsworth agar dilution method
[2] = tested on: Lactiplantibacillus plantarum; assay: Antimicrobial activity against Lactobacillus plantarum by Wadsworth agar dilution method
Bifidobacterium dentium = assay: Antimicrobial activity against Bifidobacterium dentium by Wadsworth agar dilution method
Desulfovibrio piger = assay: Antimicrobial activity against Desulfovibrio piger by Wadsworth agar dilution method
Prevotella bivia = assay: Antimicrobial activity against Prevotella bivia by Wadsworth agar dilution method
Flavonifractor plautii = assay: Antimicrobial activity against Clostridium orbiscindens by Wadsworth agar dilution method
[3] = tested on: Bifidobacterium pseudolongum; assay: Antimicrobial activity against Bifidobacterium pseudolongum by Wadsworth agar dilution method
Anaerococcus prevotii = assay: Antimicrobial activity against Anaerococcus prevotii by Wadsworth agar dilution method
[4] = tested on: Porphyromonas asaccharolytica; assay: Antimicrobial activity against Porphyromonas asaccharolyticus by Wadsworth agar dilution method
Prevotella disiens = assay: Antimicrobial activity against Prevotella disiens by Wadsworth agar dilution method
Bacteroides caccae = assay: Antimicrobial activity against Bacteroides caccae by Wadsworth agar dilution method
Clostridium spiroforme = assay: Antimicrobial activity against Clostridium spiroforme by Wadsworth agar dilution method; conditions: Thomasclavelia spiroformis
Clostridium beijerinckii = assay: Antimicrobial activity against Clostridium beijerinckii by Wadsworth agar dilution method
Ruminococcus gnavus = assay: Antimicrobial activity against Ruminococcus gnavus by Wadsworth agar dilution method; conditions: Mediterraneibacter gnavus
Clostridium subterminale = assay: Antimicrobial activity against Clostridium subterminale by Wadsworth agar dilution method
[5] = tested on: Clostridium acetobutylicum; assay: Antimicrobial activity against Clostridium acetobutylicum by Wadsworth agar dilution method
[6] = tested on: Peptoniphilus asaccharolyticus; assay: Antimicrobial activity against Peptoniphilus asaccharolyticus by Wadsworth agar dilution method
Eubacterium rectale = assay: Antimicrobial activity against Eubacterium rectale by Wadsworth agar dilution method; conditions: Agathobacter rectalis
Bacteroides stercoris = assay: Antimicrobial activity against Bacteroides stercoris by Wadsworth agar dilution method
Porphyromonas uenonis = assay: Antimicrobial activity against Porphyromonas uenonis by Wadsworth agar dilution method
[7] = tested on: Lactobacillus catenaformis; assay: Antimicrobial activity against Lactobacillus catenaformis by Wadsworth agar dilution method; conditions: Eggerthia catenaformis
Clostridioides difficile = assay: Antimicrobial activity against Clostridium difficile by Wadsworth agar dilution method
[Clostridium] innocuum = Antimicrobial activity against Clostridium innocuum by Wadsworth agar dilution method
Eggerthella lenta = assay: Antimicrobial activity against Eggerthella lenta by Wadsworth agar dilution method
Atopobium minutum = assay: Antimicrobial activity against Atopobium minutum by Wadsworth agar dilution method
Clostridium fallax = assay: Antimicrobial activity against Clostridium fallax by Wadsworth agar dilution method
Porphyromonas = assay: Antimicrobial activity against Porphyromonas sp. by Wadsworth agar dilution method
Clostridium symbiosum = assay: Antimicrobial activity against Clostridium symbiosum by Wadsworth agar dilution method
Clostridium nexile = assay: Antimicrobial activity against Clostridium nexile by Wadsworth agar dilution method; conditions: Faecalimonas nexilis
Fusobacterium mortiferum = assay: Antimicrobial activity against Clostridium rectum by Wadsworth agar dilution method
Clostridium tertium = assay: Antimicrobial activity against Clostridium tertium by Wadsworth agar dilution method
Actinomyces viscosus = assay: Antimicrobial activity against Actinomyces viscosus by Wadsworth agar dilution method
[8] = tested on: Enterocloster clostridioformis; assay: Antimicrobial activity against Clostridium clostridioforme by Wadsworth agar dilution method
[9] = tested on: Catenibacterium mitsuokai; assay: Antimicrobial activity against Catenibacterium mitsuokai by Wadsworth agar dilution method
Blautia producta = assay: Antimicrobial activity against Ruminococcus productus by Wadsworth agar dilution method
Eubacterium saburreum = assay: Antimicrobial activity against Eubacterium saburreum by Wadsworth agar dilution method; conditions: Lachnoanaerobaculum saburreum
Anaerococcus tetradius = assay: Antimicrobial activity against Anaerococcus tetradius by Wadsworth agar dilution method
Collinsella aerofaciens = assay: Antimicrobial activity against Colinsella aerofaciens by Wadsworth agar dilution method
Tissierella praeacuta = assay: Antimicrobial activity against Clostridium hastiforme by Wadsworth agar dilution method
Fusobacterium sp. = assay: Antimicrobial activity against Fusobacterium sp. by Wadsworth agar dilution method
Eubacterium callanderi = assay: Antimicrobial activity against Eubacterium callanderi by Wadsworth agar dilution method
Thomasclavelia ramosa = assay: Antimicrobial activity against Clostridium ramosum by Wadsworth agar dilution method

CC(=O)Oc1ccccc1C(=O)Nc1ncc([N+](=O)[O-])s1 [NITAZOXANIDE]
2 µg/mL: MIC50 (Lactobacillus sp.) | MIC50 [2] | MIC50 (Bifidobacterium dentium) | MIC50 [3] | MIC50 (Bacteroides caccae) | MIC50 (Eubacterium rectale) | MIC50 [7] | MIC50 (Eggerthella lenta) | MIC50 (Atopobium minutum) | MIC50 (Actinomyces viscosus) | MIC50 [9] | MIC50 (Eubacterium saburreum) | MIC50 (Collinsella aerofaciens) | MIC50 (Eubacterium callanderi)
1 µg/mL: MIC90 (Finegoldia magna) | MIC50 [1] | MIC90 (Peptoniphilus harei) | MIC50 (Desulfovibrio piger) | MIC90 (Anaerococcus prevotii) | MIC90 [4] | MIC90 (Ruminococcus gnavus) | MIC90 [6] | MIC90 (Porphyromonas uenonis) | MIC50 ([Clostridium] innocuum) | MIC90 (Porphyromonas) | MIC90 (Blautia producta) | MIC90 (Anaerococcus tetradius) | MIC50 (Fusobacterium sp.)
0.25 µg/mL: MIC (Flavonifractor plautii) | MIC50 (Flavonifractor plautii) | MIC (Clostridioides difficile) | MIC50 (Clostridioides difficile) | MIC50 [8] | MIC90 [8]
32 µg/mL: MIC90 (Lactobacillus sp.) | MIC90 [2] | MIC90 (Bifidobacterium dentium) | MIC90 [3] | MIC90 (Eubacterium rectale) | MIC90 [7] | MIC90 (Eggerthella lenta) | MIC90 (Atopobium minutum) | MIC90 (Actinomyces viscosus) | MIC90 [9] | MIC90 (Eubacterium saburreum) | MIC90 (Collinsella aerofaciens) | MIC90 (Eubacterium callanderi)
4 µg/mL: MIC50 (Bilophila wadsworthia) | MIC90 (Bilophila wadsworthia) | MIC90 (Clostridium cocleatum) | MIC90 (Desulfovibrio piger) | MIC50 (Prevotella bivia) | MIC50 (Prevotella disiens) | MIC90 (Bacteroides caccae) | MIC90 (Clostridium spiroforme) | MIC90 (Clostridium beijerinckii) | MIC90 (Clostridium subterminale) | MIC90 [5] | MIC50 (Bacteroides stercoris) | MIC90 (Bacteroides stercoris) | MIC90 ([Clostridium] innocuum) | MIC90 (Clostridium fallax) | MIC90 (Clostridium symbiosum) | MIC90 (Clostridium nexile) | MIC90 (Fusobacterium mortiferum) | MIC90 (Clostridium tertium) | MIC90 (Tissierella praeacuta) | MIC90 (Thomasclavelia ramosa)
0.5 µg/mL: MIC50 (Finegoldia magna) | MIC50 (Clostridium cocleatum) | MIC50 (Peptoniphilus harei) | MIC90 (Flavonifractor plautii) | MIC50 (Anaerococcus prevotii) | MIC50 [4] | MIC50 (Clostridium spiroforme) | MIC50 (Clostridium beijerinckii) | MIC50 (Ruminococcus gnavus) | MIC50 (Clostridium subterminale) | MIC50 [5] | MIC50 [6] | MIC50 (Porphyromonas uenonis) | MIC90 (Clostridioides difficile) | MIC50 (Clostridium fallax) | MIC50 (Porphyromonas) | MIC50 (Clostridium symbiosum) | MIC50 (Clostridium nexile) | MIC50 (Fusobacterium mortiferum) | MIC50 (Clostridium tertium) | MIC50 (Blautia producta) | MIC50 (Anaerococcus tetradius) | MIC50 (Tissierella praeacuta) | MIC50 (Thomasclavelia ramosa)
8 µg/mL: MIC90 [1] | MIC90 (Prevotella bivia) | MIC90 (Prevotella disiens) | MIC90 (Fusobacterium sp.)
